pIC50: −log10 of the molar value. Structures can show the parent of a compound that is named as a salt.
What was measured:
[1] = tested on: KO-52 cells; assay: Proliferation assay (spheroid growth, 8 days), KO-52 control cell line; type: cell-based, human; details: Homo sapiens, […], read-out: spheroid assay_OneTime KO-52 IC50
Method in brief: (§1)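 Cells were seeded at 200 (MOLM14, OCI-AML3) or 300 (KO-52) per well in ultra-low attachment round-bottom plates with compounds at several concentrations, 0.3% DMSO, and grown 8 days at 37° C. Spheroid confluence was imaged on day 8; IC50 came from a variable-slope fit normalized to DMSO and high-dose reference compound.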

[2] = molecular target: menin/MLL (terbium chelate-labeled menin, FITC-MBM1 peptide) (Homo sapiens (Human), UniProt O00255); assay: Menin/MLL homogenous time-resolved fluorescence (HTRF) assay; type: binding; details: HTRF-30 min incubation IC50, 30 min incubation;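 also: IC50 from percent inhibition of HTRF signal, normalized between wells without competitor and wells with a saturating competitor that displaces FITC-MBM1 from His-tagged menin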
Chain of menin/MLL (terbium chelate-labeled menin, FITC-MBM1 peptide) (O00255 other isoform, or with tags, fused parts or gaps): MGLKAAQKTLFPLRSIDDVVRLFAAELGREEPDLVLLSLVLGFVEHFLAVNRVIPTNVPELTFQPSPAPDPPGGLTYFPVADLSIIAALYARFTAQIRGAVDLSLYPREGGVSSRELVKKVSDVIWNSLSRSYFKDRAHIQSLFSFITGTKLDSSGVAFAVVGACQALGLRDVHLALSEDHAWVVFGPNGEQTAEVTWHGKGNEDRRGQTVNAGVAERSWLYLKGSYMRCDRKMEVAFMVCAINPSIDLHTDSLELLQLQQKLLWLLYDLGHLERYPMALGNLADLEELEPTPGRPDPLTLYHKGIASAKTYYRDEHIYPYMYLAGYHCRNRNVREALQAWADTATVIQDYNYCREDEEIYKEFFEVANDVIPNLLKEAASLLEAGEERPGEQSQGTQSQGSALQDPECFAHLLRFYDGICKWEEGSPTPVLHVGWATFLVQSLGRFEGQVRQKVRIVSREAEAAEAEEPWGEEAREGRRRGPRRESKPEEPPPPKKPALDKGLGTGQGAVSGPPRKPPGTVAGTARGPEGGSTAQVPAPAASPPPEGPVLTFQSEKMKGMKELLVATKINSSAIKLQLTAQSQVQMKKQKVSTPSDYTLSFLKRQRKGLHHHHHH

[3] = tested on: MEIS1 mRNA; assay: MEIS1 mRNA expression assay (Quantigene Singleplex) in MOLM14 cells; type: cell-based, human; details: Homo sapiens, MOLM-14, 48 h, 48 hours incubation;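 also: MEIS1 transcript levels read by probe hybridization and normalized to RPL28 mRNA, with IC50 fitted to fold changes across a rising compound concentration series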
[4] = tested on: MOLM14 cells; assay: Proliferation assay (spheroid growth, 8 days), MOLM14; type: cell-based, human; details: Homo sapiens, MOLM-14, […], MOLM14, 8 days; read-out: spheroid assay_OneTime MOLM14 IC50;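 also: spheroid size read as confluence by live-cell imaging, compounds added at a range of concentrations with 0.3% DMSO, DMSO-treated wells = 0%, highest reference dose = low control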
[5] = tested on: OCI-AML3 cells; assay: Proliferation assay (spheroid growth, 8 days), OCI-AML3; type: cell-based, human; details: Homo sapiens, OCI-AML-3, […], OCI-AML3, 8 days
Method in brief: as §1

| SMILES | pIC50 [1] | pIC50 [2] | pIC50 [3] | pIC50 [4] | pIC50 [5] |
| --- | --- | --- | --- | --- | --- |
| CCN(C(=O)c1cc(F)ccc1Oc1nncnc1N1CCC2(C1)CN([C@H](CCCNC[C@H](O)COC)C(C)C)C2)C(C)C [Compound 284, N-ethyl-5-fluoro-2-((5-(2-((R)-6-(((S)-2-hydroxy-3-methoxypropyl)amino)-2-methylhexan-3-yl)-2,6-diazaspiro[3.4]octan-6-yl)-1,2,4-triazin-6-yl)oxy)-N-isopropylbenzamide formate] | < 4.82 | ~9.44 | 7.30 | 7.64 | 7.14 |
| CCN(C(=O)c1cc(F)ccc1Oc1nncnc1N1CCC2(C1)CN([C@H](C[C@@H](O)CN(C)CCOC)C(C)C)C2)C(C)C (single isomer, unassigned) [Compound 356, N-ethyl-5-fluoro-2-((5-(2-((3*R,5R)-5-hydroxy-6-((2-methoxyethyl)(methyl)amino)-2-methylhexan-3-yl)-2,6-diazaspiro[3.4]octan-6-yl)-1,2,4-triazin-6-yl)oxy)-N-isopropylbenzamide fumarate] | < 4.82 | 10.28 | ~8.09 | 8.15 | 7.34 |
| CCN(C(=O)c1cc(F)ccc1Oc1nncnc1N1CCC2(C1)CN([C@H](CCCNCC(F)F)C(C)C)C2)C(C)C [Compound 15, (R)-2-((5-(2-(6-((2,2-difluoroethyl)amino)-2-methylhexan-3-yl)-2,6-diazaspiro[3.4]octan-6-yl)-1,2,4-triazin-6-yl)oxy)-N-ethyl-5-fluoro-N-isopropylbenzamide] | 5.43 | 9.60 | 7.15 | 7.00 | 6.34 |
| CCN(C(=O)c1cc(F)ccc1Oc1nncnc1N1CCC2(C1)CN([C@H](CCN)C(C)C)C2)C(C)C (single isomer, unassigned) [Compound 219, (*R)-2-((5-(2-(1-amino-4-methylpentan-3-yl)-2,6-diazaspiro[3.4]octan-6-yl)-1,2,4-triazin-6-yl)oxy)-N-ethyl-5-fluoro-N-isopropylbenzamide fumarate] | < 4.82 | 9.57 | ~6.64 | 6.89 | 6.37 |
| CCN(C(=O)c1cc(F)ccc1Oc1nncnc1N1CCC2(C1)CN([C@H](CCN(C)CCC(N)=O)C(C)C)C2)C(C)C (single isomer, unassigned) [Compound 280, (*R)-2-((5-(2-(1-((3-amino-3-oxopropyl)(methyl)amino)-4-methylpentan-3-yl)-2,6-diazaspiro[3.4]octan-6-yl)-1,2,4-triazin-6-yl)oxy)-N-ethyl-5-fluoro-N-isopropylbenzamide fumarate] | < 4.82 | 9.70 | 5.97 | 6.16 | 6.04 |
| CC(C)[C@@H](CCCN(C)[C@@H](C)CC(N)=O)N1CC2(CCN(c3ncnnc3Oc3ccc(F)cc3C(=O)N(C(C)C)C(C)C)C2)C1 (single isomer, unassigned) [Compound 201, 2-((5-(2-((*R)-6-(((S)-4-amino-4-oxobutan-2-yl)(methyl)amino)-2-methylhexan-3-yl)-2,6-diazaspiro[3.4]octan-6-yl)-1,2,4-triazin-6-yl)oxy)-5-fluoro-N,N-diisopropylbenzamide fumarate] | < 4.82 | 9.89 | 7.28 | 7.40 | 7.19 |
| CCN(C(=O)c1cc(F)ccc1Oc1nncnc1N1CCC2(C1)CN([C@H](CCCN(C)C[C@H](O)COC)C(C)C)C2)C(C)C [Compound 285, N-ethyl-5-fluoro-2-((5-(2-((R)-6-(((S)-2-hydroxy-3-methoxypropyl)(methyl)amino)-2-methylhexan-3-yl)-2,6-diazaspiro[3.4]octan-6-yl)-1,2,4-triazin-6-yl)oxy)-N-isopropylbenzamide formate] | < 4.82 | 8.99 | 6.57 | 6.80 | 6.89 |
| CCN(C(=O)c1cc(F)ccc1Oc1nncnc1N1CCC2(C1)CN([C@H](CCCN(C)C[C@H](COC)OC)C(C)C)C2)C(C)C (single isomer, unassigned) [Compound 176, 2-((5-(2-((R)-6-(((*R)-2,3-dimethoxypropyl)(methyl)amino)-2-methylhexan-3-yl)-2,6-diazaspiro[3.4]octan-6-yl)-1,2,4-triazin-6-yl)oxy)-N-ethyl-5-fluoro-N-isopropylbenzamide fumarate] | < 4.82 | 9.89 | 7.77 | 7.42 | 6.92 |
| CCN(C(=O)c1cc(F)ccc1Oc1nncnc1N1CCC2(C1)CN([C@H](CCCN(C)C(CO)CO)C(C)C)C2)C(C)C [Compound 256, (R)-2-((5(2-(6-((1,3-dihydroxypropan-2-yl)(methyl)amino)-2-methylhexan-3-yl)-2,6-diazaspiro[3.4]octan-6-yl)-1,2,4-triazin-6-yl)oxy)-N-ethyl-5-fluoro-N-isopropylbenzamide fumarate] | < 4.82 | 9.82 | 6.89 | 7.08 | 6.44 |
| CCN(C(=O)c1cc(F)ccc1Oc1nncnc1N1CCC2(C1)CN([C@H](C[C@@H](O)CN(C)C(C)C)C(C)C)C2)C(C)C (single isomer, unassigned) [Compound 323, N-ethyl-5-fluoro-2-((5-(2-((3*R,5*R)-5-hydroxy-6-(isopropyl(methyl)amino)-2-methylhexan-3-yl)-2,6-diazaspiro[3.4]octan-6-yl)-1,2,4-triazin-6-yl)oxy)-N-isopropylbenzamide fumarate] | 4.87 | 9.31 | 7.21 | 6.96 | 6.77 |
| CCN(C(=O)c1cc(F)ccc1Oc1nncnc1N1CCC2(C1)CN([C@H](CN)C(C)C)C2)C(C)C (single isomer, unassigned) [Compound 24, (*S)-2-((5-(2-(1-amino-3-methylbutan-2-yl)-2,6-diazaspiro[3.4]octan-6-yl)-1,2,4-triazin-6-yl)oxy)-N-ethyl-5-fluoro-N-isopropylbenzamide] | < 4.82 | 9.01 | ~6.08 | 6.16 | 5.57 |
| CCN(C(=O)c1cc(F)ccc1Oc1nncnc1N1CCC2(C1)CN([C@H](CCCN(C)[C@@H](C)CC(=O)N(C)C)C(C)C)C2)C(C)C (single isomer, unassigned) [Compound 185, 2-((5-(2-((R)-6-(((*S)-4-(dimethylamino)-4-oxobutan-2-yl)(methyl)amino)-2-methylhexan-3-yl)-2,6-diazaspiro[3.4]octan-6-yl)-1,2,4-triazin-6-yl)oxy)-N-ethyl-5-fluoro-N-isopropylbenzamide fumarate] | 5.77 | 9.70 | 7.36 | 7.10 | 7.21 |
| CCN(C(=O)c1cc(F)ccc1Oc1nncnc1N1CCC2(C1)CN([C@H](CCCN(C)[C@H](C)CC(=O)NC)C(C)C)C2)C(C)C [Compound 191, N-ethyl-5-fluoro-N-isopropyl-2-((5-(2-((R)-2-methyl-6-(methyl((R)-4-(methylamino)-4-oxobutan-2-yl)amino)hexan-3-yl)-2,6-diazaspiro[3.4]octan-6-yl)-1,2,4-triazin-6-yl)oxy)benzamide fumarate] | < 4.82 | 9.55 | 6.66 | 6.55 | 6.25 |

Source: US12473295B2, “Substituted straight chain spiro derivatives” (Janssen Pharmaceutica NV, priority 2019, dated 2025)
